Consider ten molecules from patent US12427187B2, “Glucose-responsive insulin conjugates” (priority 2019, dated 2025).

The first test deals with T1, Human macrophage mannose receptor 1 (MRC1) (Homo sapiens, UniProt P22897).
T1 sequence (P22897 19-1456): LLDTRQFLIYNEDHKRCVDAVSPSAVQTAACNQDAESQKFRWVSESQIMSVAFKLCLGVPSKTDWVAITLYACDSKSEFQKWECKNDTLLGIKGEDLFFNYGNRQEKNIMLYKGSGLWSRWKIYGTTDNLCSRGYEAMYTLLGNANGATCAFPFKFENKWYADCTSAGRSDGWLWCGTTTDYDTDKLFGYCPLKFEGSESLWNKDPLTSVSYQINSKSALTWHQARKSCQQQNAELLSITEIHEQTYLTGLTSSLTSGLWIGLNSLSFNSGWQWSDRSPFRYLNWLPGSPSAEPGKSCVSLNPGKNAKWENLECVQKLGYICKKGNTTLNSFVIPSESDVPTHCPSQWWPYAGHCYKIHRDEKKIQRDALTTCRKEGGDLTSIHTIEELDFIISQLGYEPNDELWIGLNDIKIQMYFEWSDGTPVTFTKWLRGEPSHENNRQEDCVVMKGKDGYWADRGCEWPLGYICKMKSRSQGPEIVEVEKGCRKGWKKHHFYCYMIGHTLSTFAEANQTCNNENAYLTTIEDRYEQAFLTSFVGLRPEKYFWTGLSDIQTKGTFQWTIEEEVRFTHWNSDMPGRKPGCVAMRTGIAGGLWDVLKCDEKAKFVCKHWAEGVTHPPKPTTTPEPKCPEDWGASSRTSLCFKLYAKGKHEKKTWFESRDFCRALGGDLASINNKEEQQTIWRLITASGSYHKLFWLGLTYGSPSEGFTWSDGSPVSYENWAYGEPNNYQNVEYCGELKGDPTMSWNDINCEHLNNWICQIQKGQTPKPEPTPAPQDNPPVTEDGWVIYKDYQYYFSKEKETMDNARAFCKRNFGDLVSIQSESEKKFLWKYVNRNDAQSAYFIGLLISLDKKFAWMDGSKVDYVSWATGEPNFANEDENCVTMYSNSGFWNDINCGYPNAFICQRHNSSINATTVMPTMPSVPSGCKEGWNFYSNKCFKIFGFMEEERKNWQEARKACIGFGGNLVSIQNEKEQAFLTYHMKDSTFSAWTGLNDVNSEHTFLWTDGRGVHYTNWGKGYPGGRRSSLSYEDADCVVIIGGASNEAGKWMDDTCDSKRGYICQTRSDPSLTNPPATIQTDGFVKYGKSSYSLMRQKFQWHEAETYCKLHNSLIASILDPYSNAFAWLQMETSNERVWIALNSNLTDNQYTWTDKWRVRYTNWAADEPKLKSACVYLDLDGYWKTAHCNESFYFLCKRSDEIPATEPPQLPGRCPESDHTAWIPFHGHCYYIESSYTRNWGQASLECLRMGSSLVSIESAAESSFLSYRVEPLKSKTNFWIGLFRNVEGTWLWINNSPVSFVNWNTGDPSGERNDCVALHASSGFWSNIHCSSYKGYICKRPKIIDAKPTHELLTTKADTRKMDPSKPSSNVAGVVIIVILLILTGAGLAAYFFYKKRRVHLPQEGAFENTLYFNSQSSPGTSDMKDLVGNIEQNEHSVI
In words: MRC1 competition binding assay with Eu-mannosylated-BSA. The conditions noted are these: Method E: 96-well plate; IP = inflection point; read-out: MRC1 Binding IP.
Protocol: The competition binding assay for Human macrophage mannose receptor 1 (MRC1) utilized a ligand, mannosylated-BSA labeled with the DELFIA Eu-N1-ITC reagent, as reported in the literature. Assay was performed either in a 96-well plate with 100 μL well volume (Method E) or in a 384-well plate with 25 μL well volume (Method F). […] The antibody was incubated in the plate for 1 hr at rt with shaking. The plate was washed with wash buffer 3-5 times followed by addition of MRC1 (2 ng/μl final concentration) in PBS containing 1% stabilizer BSA. The plate was incubated at rt with gentle shaking for 1 hr. The plate was washed three times with wash buffer. The IOC molecules in 12.5 μL (or 50 μL depending on plate format) buffer at appropriate concentrations were added followed by 12.5 μL (or 50 μL) Eu-mannosylated-BSA (0.1 nm final concentration) in 50 mM Tris, pH 7.5 containing 100 mM NaCl, 5 mM CaCl2, 1 mM MgCl2 and 0.2% stabilizer BSA. The plate was incubated for 2 hrs at rt with shaking followed by washing three times with wash buffer.
Turning to `CC(=O)[C@H](CCCCN)NC(=O)CCCCC(=O)N[C@@H](CCC(=O)N[C@@H](CCC(=O)NCCO[C@@H]1O[C@@H](C)[C@@H](O)[C@@H](O)[C@@H]1O)C(=O)NCCO[C@@H]1O[C@@H](C)[C@@H](O)[C@@H](O)[C@@H]1O)C(=O)NCCO[C@H]1O[C@H](CO[C@H]2O[C@H](CO)[C@@H](O)[C@H](O)[C@@H]2O)[C@@H](O)[C@H](O[C@H]2O[C@H](CO)[C@@H](O)[C@H](O)[C@@H]2O)[C@@H]1O` [IOC-3], the IC50 amounted to 42.2 nM.

For `CC(=O)[C@H](CCCCN)NC(=O)CCCCC(=O)N[C@@H](CCC(=O)NCCO[C@H]1O[C@H](CO[C@H]2O[C@H](CO)[C@@H](O)[C@H](O)[C@@H]2O)[C@@H](O)[C@H](O[C@H]2O[C@H](CO)[C@@H](O)[C@H](O)[C@@H]2O)[C@@H]1O)C(=O)N[C@@H](CCC(=O)NCCO[C@H]1O[C@H](CO[C@H]2O[C@H](CO)[C@@H](O)[C@H](O)[C@@H]2O)[C@@H](O)[C@H](O[C@H]2O[C@H](CO)[C@@H](O)[C@H](O)[C@@H]2O)[C@@H]1O)C(=O)N[C@@H](CC(C)C)C(=O)NCCO[C@H]1O[C@H](CO[C@H]2O[C@H](CO)[C@@H](O)[C@H](O)[C@@H]2O)[C@@H](O)[C@H](O[C@H]2O[C@H](CO)[C@@H](O)[C@H](O)[C@@H]2O)[C@@H]1O` [IOC-4], the IC50 turned out to be 7.56 nM.

In the case of `CC(=O)[C@H](CCCCN)NC(=O)CCCCC(=O)NCC(=O)N[C@@H](CCC(=O)N[C@@H](CCC(=O)NCCCCCC(=O)NCCO[C@H]1O[C@H](CO[C@H]2O[C@H](CO)[C@@H](O)[C@H](O)[C@@H]2O)[C@@H](O)[C@H](O[C@H]2O[C@H](CO)[C@@H](O)[C@H](O)[C@@H]2O)[C@@H]1O)C(=O)NCCCCCC(=O)NCCOC1O[C@H](CO[C@H]2O[C@H](CO)[C@@H](O)[C@H](O)[C@@H]2O)[C@@H](O)[C@H](O[C@H]2O[C@H](CO)[C@@H](O)[C@H](O)[C@@H]2O)[C@@H]1O)C(=O)NCCCCCC(=O)NCCO[C@H]1O[C@H](CO[C@H]2O[C@H](CO)[C@@H](O)[C@H](O)[C@@H]2O)[C@@H](O)[C@H](O[C@H]2O[C@H](CO)[C@@H](O)[C@H](O)[C@@H]2O)[C@@H]1O` (stereo partly shown) [IOC-5], the IC50 was determined as 9.12 nM.

As for `CC(=O)[C@H](CCCCN)NC(=O)CCCCCNC(=O)[C@H](CCCCNC(=O)CCCCC(=O)NCCO[C@H]1O[C@H](CO[C@H]2O[C@H](CO)[C@@H](O)[C@H](O)[C@@H]2O)[C@@H](O)[C@H](O[C@H]2O[C@H](CO)[C@@H](O)[C@H](O)[C@@H]2O)[C@@H]1O)NC(=O)[C@H](CCCCNC(=O)CCCCC(=O)NCCO[C@H]1O[C@H](CO[C@H]2O[C@H](CO)[C@@H](O)[C@H](O)[C@@H]2O)[C@@H](O)[C@H](O[C@H]2O[C@H](CO)[C@@H](O)[C@H](O)[C@@H]2O)[C@@H]1O)NC(=O)CCCCC(=O)NCCO[C@H]1O[C@H](CO[C@H]2O[C@H](CO)[C@@H](O)[C@H](O)[C@@H]2O)[C@@H](O)[C@H](O[C@H]2O[C@H](CO)[C@@H](O)[C@H](O)[C@@H]2O)[C@@H]1O` [IOC-7], the IC50 came out at 7.17 nM.

Take `CC(=O)[C@H](CCCCN)NC(=O)CCCCC(=O)N[C@@H](CCC(=O)NCCO[C@H]1O[C@H](CO)[C@@H](O)[C@H](O)[C@@H]1O)C(=O)N[C@@H](CCC(=O)NCCO[C@H]1O[C@H](CO)[C@@H](O)[C@H](O)[C@@H]1O)C(=O)N[C@@H](CCC(=O)NCCO[C@H]1O[C@H](CO)[C@@H](O)[C@H](O)[C@@H]1O)C(=O)NCCO[C@H]1O[C@H](CO)[C@@H](O)[C@H](O)[C@@H]1O` [IOC-16]: the IC50 is 86.7 nM.

Turning to `CC(=O)[C@H](CCCCN)NC(=O)CCCCC(=O)N[C@@H](CCC(=O)NCCO[C@H]1O[C@H](CO)[C@@H](O)[C@H](O)[C@@H]1O)C(=O)N[C@@H](CCC(=O)NCCO[C@H]1O[C@H](CO)[C@@H](O)[C@H](O)[C@@H]1O)C(=O)N[C@@H](CCC(=O)NCCO[C@H]1O[C@H](CO)[C@@H](O)[C@H](O)[C@@H]1O)C(=O)NCCO[C@H]1O[C@H](CO[C@H]2O[C@H](CO)[C@@H](O)[C@H](O)[C@@H]2O)[C@@H](O)[C@H](O[C@H]2O[C@H](CO)[C@@H](O)[C@H](O)[C@@H]2O)[C@@H]1O` [IOC-23], the IC50 stood at 37.2 nM.

Consider `CC(=O)[C@H](CCCCN)NC(=O)CCCCC(=O)N[C@@H](CCC(=O)N[C@@H](CCC(=O)N[C@@H](CCC(=O)NCCCCCC(=O)NCCO[C@H]1O[C@H](CO[C@H]2O[C@H](CO)[C@@H](O)[C@H](O)[C@@H]2O)[C@@H](O)[C@H](O[C@H]2O[C@H](CO)[C@@H](O)[C@H](O)[C@@H]2O)[C@@H]1O)C(=O)NCCCCCC(=O)NCCO[C@H]1O[C@H](CO[C@H]2O[C@H](CO)[C@@H](O)[C@H](O)[C@@H]2O)[C@@H](O)[C@H](O[C@H]2O[C@H](CO)[C@@H](O)[C@H](O)[C@@H]2O)[C@@H]1O)C(=O)NCCCCCC(=O)NCCO[C@H]1O[C@H](CO[C@H]2O[C@H](CO)[C@@H](O)[C@H](O)[C@@H]2O)[C@@H](O)[C@H](O[C@H]2O[C@H](CO)[C@@H](O)[C@H](O)[C@@H]2O)[C@@H]1O)C(=O)NCCCCCC(=O)NCCO[C@H]1O[C@H](CO[C@H]2O[C@H](CO)[C@@H](O)[C@H](O)[C@@H]2O)[C@@H](O)[C@H](O[C@H]2O[C@H](CO)[C@@H](O)[C@H](O)[C@@H]2O)[C@@H]1O` [IOC-24], for which the IC50 came out at 3.32 nM.

Still in this test, the particulars now being: Method F: 384-well plate; IP = inflection point; read-out: MRC1 Binding IP.
With `CC(=O)[C@H](CCCCN)NC(=O)CCCCC(=O)NCC(=O)N[C@@H](CCC(=O)N[C@@H](CCC(=O)NCCCCCC(=O)N(CCOC1O[C@H](CO)[C@@H](O)[C@H](O)[C@@H]1O)CCO[C@H]1O[C@H](CO)[C@@H](O)[C@H](O)[C@@H]1O)C(=O)NCCCCCC(=O)N(CCOC1O[C@H](CO)[C@@H](O)[C@H](O)[C@@H]1O)CCOC1O[C@H](CO)[C@@H](O)[C@H](O)[C@@H]1O)C(=O)NCCCCCC(=O)NCCO[C@H]1O[C@H](CO[C@H]2O[C@H](CO)[C@@H](O)[C@H](O)[C@@H]2O)[C@@H](O)[C@H](O[C@H]2O[C@H](CO)[C@@H](O)[C@H](O)[C@@H]2O)[C@@H]1O` (stereo partly shown) [IOC-27], the IC50 was 20.7 nM.

For the molecule `CC(=O)[C@H](CCCCN)NC(=O)CCCCC(=O)NCC(=O)N[C@@H](CCC(=O)N[C@@H](CCC(=O)NCCCCCC(=O)N(CCOC1O[C@H](CO)[C@@H](O)[C@H](O)[C@@H]1O)CCOC1O[C@H](CO)[C@@H](O)[C@H](O)[C@@H]1O)C(=O)NCCCCCC(=O)N(CCOC1O[C@H](CO)[C@@H](O)[C@H](O)[C@@H]1O)CCOC1O[C@H](CO)[C@@H](O)[C@H](O)[C@@H]1O)C(=O)NCCCCCC(=O)NCCO[C@@H]1O[C@H](CO[C@H]2O[C@H](CO)[C@@H](O)[C@H](O)[C@@H]2O)[C@@H](O)[C@H](O[C@H]2O[C@H](CO)[C@@H](O)[C@H](O)[C@@H]2O)[C@@H]1O` (stereo partly shown) [IOC-28], the IC50 came to 10.9 nM.

For the molecule `CC(=O)[C@H](CCCCN)NC(=O)CCCCC(=O)NCC(=O)N[C@@H](CCC(=O)N[C@@H](CCC(=O)NCCCCCC(=O)N(CCOC1O[C@H](CO)[C@@H](O)[C@H](O)[C@@H]1O)CCO[C@H]1O[C@H](CO)[C@@H](O)[C@H](O)[C@@H]1O)C(=O)NCCCCCC(=O)N(CCOC1O[C@H](CO)[C@@H](O)[C@H](O)[C@@H]1O)CCOC1O[C@H](CO)[C@@H](O)[C@H](O)[C@@H]1O)C(=O)NCCCCCC(=O)NCCO[C@H]1O[C@H](CO[C@H]2O[C@H](CO)[C@@H](O)[C@H](O)[C@@H]2O)[C@@H](O)[C@H](O[C@H]2O[C@H](CO)[C@@H](O)[C@H](O)[C@@H]2O)[C@@H]1O` (stereo partly shown) [IOC-29], the IC50 is 18.5 nM.
